In PubChem BioAssay (NCI):
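96-well plates; 48 h exposure; 5 concentrations. Endpoints by linear interpolation between flanking doses. Not reached: highest tested concentration assigned. TGI is the concentration that stops growth completely.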

How the values were obtained:
Experiment in all cases: growth of human tumour cells (NCI), 48 h
RXF-631 renal = tested on: RXF-631 renal
RPMI-8226 leukemia = tested on: RPMI-8226 leukemia
HT29 colon = tested on: HT29 colon
SNB-78 CNS = tested on: SNB-78 CNS
KM12 colon = tested on: KM12 colon
A498 renal = tested on: A498 renal
U251 CNS = tested on: U251 CNS
KM20L2 colon = tested on: KM20L2 colon
SK-MEL-2 melanoma = tested on: SK-MEL-2 melanoma
LOX IMVI melanoma = tested on: LOX IMVI melanoma
MALME-3M melanoma = tested on: MALME-3M melanoma
UACC-257 melanoma = tested on: UACC-257 melanoma
786-0 renal = tested on: 786-0 renal
TK-10 renal = tested on: TK-10 renal
DLD-1 colon = tested on: DLD-1 colon
K-562 leukemia = tested on: K-562 leukemia
DMS 114 small cell lung = tested on: DMS 114 small cell lung
SN12C renal = tested on: SN12C renal
RXF 393 renal = tested on: RXF 393 renal
SK-MEL-5 melanoma = tested on: SK-MEL-5 melanoma
M19-MEL melanoma = tested on: M19-MEL melanoma
SNB-19 CNS = tested on: SNB-19 CNS
SF-295 CNS = tested on: SF-295 CNS
ACHN renal = tested on: ACHN renal
HL-60(TB) leukemia = tested on: HL-60(TB) leukemia
OVCAR-3 ovarian = tested on: OVCAR-3 ovarian
OVCAR-5 ovarian = tested on: OVCAR-5 ovarian
CAKI-1 renal = tested on: CAKI-1 renal
HCC-2998 colon = tested on: HCC-2998 colon
A549 NSCLC = tested on: A549 NSCLC
HCT-15 colon = tested on: HCT-15 colon
NCI-H23 lung = tested on: NCI-H23 lung
IGROV1 ovarian = tested on: IGROV1 ovarian
UACC-62 melanoma = tested on: UACC-62 melanoma
OVCAR-8 ovarian = tested on: OVCAR-8 ovarian
XF 498 CNS = tested on: XF 498 CNS
LXFL 529 NSCLC = tested on: LXFL 529 NSCLC
EKVX NSCLC = tested on: EKVX NSCLC
NCI-H460 lung = tested on: NCI-H460 lung
NCI-H522 lung = tested on: NCI-H522 lung
MOLT-4 leukemia = tested on: MOLT-4 leukemia
HOP-62 NSCLC = tested on: HOP-62 NSCLC
SF-268 CNS = tested on: SF-268 CNS
SW-620 colon = tested on: SW-620 colon
HOP-18 NSCLC = tested on: HOP-18 NSCLC
CCRF-CEM leukemia = tested on: CCRF-CEM leukemia
COLO 205 colon = tested on: COLO 205 colon
OVCAR-4 ovarian = tested on: OVCAR-4 ovarian
SK-MEL-28 melanoma = tested on: SK-MEL-28 melanoma
SR leukemia = tested on: SR leukemia
SNB-75 CNS = tested on: SNB-75 CNS
UO-31 renal = tested on: UO-31 renal
NCI-H226 lung = tested on: NCI-H226 lung
HCT-116 colon = tested on: HCT-116 colon
SK-OV-3 ovarian = tested on: SK-OV-3 ovarian
SF-539 CNS = tested on: SF-539 CNS
M14 melanoma = tested on: M14 melanoma
HOP-92 NSCLC = tested on: HOP-92 NSCLC

For `CC1(C)CC(=O)C(C(=O)C(=O)NC2=C(Cl)C(=O)c3ccccc3C2=O)C(=O)C1`, which TGI (RXF-631 renal) is on record?
Its TGI is over 100 µM.

What about the TGI (RPMI-8226 leukemia) of the same compound?
Its TGI is over 100 µM.

What about the TGI (HT29 colon) of the same compound?
Its TGI is over 100 µM.

What about the TGI (SNB-78 CNS) of the same compound?
The TGI was over 100 µM.

And the TGI (KM12 colon)?
Its TGI is over 100 µM.

And the TGI (A498 renal)?
Its TGI is over 100 µM.

What about the TGI (U251 CNS) of the same compound?
The TGI was over 100 µM.

And the TGI (KM20L2 colon)?
The TGI was over 100 µM.

What about the TGI (SK-MEL-2 melanoma) of the same compound?
Its TGI is over 100 µM.

And the TGI (LOX IMVI melanoma)?
Its TGI is over 100 µM.

And the TGI (MALME-3M melanoma)?
Its TGI is over 100 µM.

What about the TGI (UACC-257 melanoma) of the same compound?
Its TGI is over 100 µM.

What about the TGI (786-0 renal) of the same compound?
The TGI was over 100 µM.

And the TGI (TK-10 renal)?
Its TGI is over 100 µM.

And the TGI (DLD-1 colon)?
Its TGI is over 100 µM.

And the TGI (K-562 leukemia)?
Its TGI is over 100 µM.

And the TGI (DMS 114 small cell lung)?
Its TGI is over 100 µM.

What about the TGI (SN12C renal) of the same compound?
Its TGI is over 100 µM.

What about the TGI (RXF 393 renal) of the same compound?
The TGI was over 100 µM.

And the TGI (SK-MEL-5 melanoma)?
The TGI was over 100 µM.

What about the TGI (M19-MEL melanoma) of the same compound?
The TGI was over 100 µM.

And the TGI (SNB-19 CNS)?
The TGI was over 100 µM.

And the TGI (SF-295 CNS)?
The TGI was over 100 µM.

What about the TGI (ACHN renal) of the same compound?
Its TGI is over 100 µM.

What about the TGI (HL-60(TB) leukemia) of the same compound?
Its TGI is 47.2 µM.

What about the TGI (OVCAR-3 ovarian) of the same compound?
The TGI was over 100 µM.

What about the TGI (OVCAR-5 ovarian) of the same compound?
The TGI was over 100 µM.

And the TGI (CAKI-1 renal)?
Its TGI is over 100 µM.

What about the TGI (HCC-2998 colon) of the same compound?
Its TGI is over 100 µM.

And the TGI (A549 NSCLC)?
Its TGI is over 100 µM.

And the TGI (HCT-15 colon)?
The TGI was over 100 µM.

And the TGI (NCI-H23 lung)?
Its TGI is over 100 µM.

And the TGI (IGROV1 ovarian)?
Its TGI is over 100 µM.

And the TGI (UACC-62 melanoma)?
The TGI was over 100 µM.

What about the TGI (OVCAR-8 ovarian) of the same compound?
Its TGI is over 100 µM.

What about the TGI (XF 498 CNS) of the same compound?
Its TGI is over 100 µM.

And the TGI (LXFL 529 NSCLC)?
Its TGI is over 100 µM.

And the TGI (EKVX NSCLC)?
Its TGI is over 100 µM.

What about the TGI (NCI-H460 lung) of the same compound?
The TGI was over 100 µM.

What about the TGI (NCI-H522 lung) of the same compound?
Its TGI is 91.6 µM.

And the TGI (MOLT-4 leukemia)?
The TGI was 94.4 µM.

And the TGI (HOP-62 NSCLC)?
The TGI was over 100 µM.

And the TGI (SF-268 CNS)?
Its TGI is over 100 µM.

And the TGI (SW-620 colon)?
The TGI was over 100 µM.

And the TGI (HOP-18 NSCLC)?
The TGI was over 100 µM.

What about the TGI (CCRF-CEM leukemia) of the same compound?
Its TGI is over 100 µM.

And the TGI (COLO 205 colon)?
The TGI was over 100 µM.

What about the TGI (OVCAR-4 ovarian) of the same compound?
The TGI was over 100 µM.

And the TGI (SK-MEL-28 melanoma)?
Its TGI is over 100 µM.

And the TGI (SR leukemia)?
Its TGI is over 100 µM.

What about the TGI (SNB-75 CNS) of the same compound?
Its TGI is over 100 µM.

What about the TGI (UO-31 renal) of the same compound?
The TGI was over 100 µM.

And the TGI (NCI-H226 lung)?
The TGI was over 100 µM.

And the TGI (HCT-116 colon)?
Its TGI is over 100 µM.

And the TGI (SK-OV-3 ovarian)?
Its TGI is over 100 µM.

And the TGI (SF-539 CNS)?
The TGI was over 100 µM.

What about the TGI (M14 melanoma) of the same compound?
The TGI was over 100 µM.

`COC(=O)C12C3C4C1C1C2C3C41C(=O)O` (stereo not drawn) was tested. Which TGI (RXF-631 renal) did it give?
The TGI was over 100 µM.

What about the TGI (RPMI-8226 leukemia) of the same compound?
The TGI was over 100 µM.

And the TGI (HT29 colon)?
Its TGI is over 100 µM.

What about the TGI (SNB-78 CNS) of the same compound?
Its TGI is over 100 µM.

What about the TGI (A498 renal) of the same compound?
Its TGI is over 100 µM.

And the TGI (U251 CNS)?
The TGI was over 100 µM.

What about the TGI (KM20L2 colon) of the same compound?
Its TGI is over 100 µM.

And the TGI (MALME-3M melanoma)?
Its TGI is over 100 µM.

What about the TGI (UACC-257 melanoma) of the same compound?
The TGI was over 100 µM.

What about the TGI (786-0 renal) of the same compound?
The TGI was over 100 µM.

What about the TGI (TK-10 renal) of the same compound?
The TGI was over 100 µM.

And the TGI (DLD-1 colon)?
The TGI was over 100 µM.

And the TGI (K-562 leukemia)?
Its TGI is over 100 µM.

What about the TGI (DMS 114 small cell lung) of the same compound?
The TGI was over 100 µM.

And the TGI (SN12C renal)?
The TGI was over 100 µM.

And the TGI (RXF 393 renal)?
The TGI was over 100 µM.

What about the TGI (SK-MEL-5 melanoma) of the same compound?
Its TGI is over 100 µM.

What about the TGI (M19-MEL melanoma) of the same compound?
The TGI was over 100 µM.

And the TGI (SNB-19 CNS)?
The TGI was over 100 µM.

What about the TGI (HOP-92 NSCLC) of the same compound?
The TGI was over 100 µM.

What about the TGI (SF-295 CNS) of the same compound?
The TGI was over 100 µM.

And the TGI (ACHN renal)?
The TGI was over 100 µM.

What about the TGI (HL-60(TB) leukemia) of the same compound?
The TGI was over 100 µM.

And the TGI (OVCAR-3 ovarian)?
Its TGI is over 100 µM.

What about the TGI (OVCAR-5 ovarian) of the same compound?
The TGI was over 100 µM.

What about the TGI (CAKI-1 renal) of the same compound?
Its TGI is over 100 µM.

And the TGI (HCC-2998 colon)?
Its TGI is over 100 µM.

What about the TGI (A549 NSCLC) of the same compound?
Its TGI is over 100 µM.

And the TGI (HCT-15 colon)?
The TGI was over 100 µM.

What about the TGI (NCI-H23 lung) of the same compound?
The TGI was over 100 µM.

What about the TGI (IGROV1 ovarian) of the same compound?
Its TGI is over 100 µM.

What about the TGI (UACC-62 melanoma) of the same compound?
Its TGI is over 100 µM.

What about the TGI (OVCAR-8 ovarian) of the same compound?
Its TGI is over 100 µM.

And the TGI (XF 498 CNS)?
The TGI was over 100 µM.

What about the TGI (LXFL 529 NSCLC) of the same compound?
The TGI was over 100 µM.

And the TGI (EKVX NSCLC)?
Its TGI is over 100 µM.

And the TGI (NCI-H460 lung)?
Its TGI is over 100 µM.

And the TGI (MOLT-4 leukemia)?
Its TGI is over 100 µM.

What about the TGI (HOP-62 NSCLC) of the same compound?
Its TGI is over 100 µM.

And the TGI (SF-268 CNS)?
Its TGI is over 100 µM.

What about the TGI (SW-620 colon) of the same compound?
Its TGI is over 100 µM.

What about the TGI (HOP-18 NSCLC) of the same compound?
Its TGI is over 100 µM.

And the TGI (CCRF-CEM leukemia)?
Its TGI is over 100 µM.

What about the TGI (COLO 205 colon) of the same compound?
Its TGI is over 100 µM.

What about the TGI (OVCAR-4 ovarian) of the same compound?
Its TGI is over 100 µM.

What about the TGI (SK-MEL-28 melanoma) of the same compound?
The TGI was over 100 µM.

And the TGI (UO-31 renal)?
The TGI was over 100 µM.

And the TGI (NCI-H226 lung)?
Its TGI is over 100 µM.

What about the TGI (SK-OV-3 ovarian) of the same compound?
Its TGI is over 100 µM.

What about the TGI (SF-539 CNS) of the same compound?
Its TGI is over 100 µM.

What about the TGI (M14 melanoma) of the same compound?
The TGI was over 100 µM.
